Structures are written as SMILES. pIC50: −log10 of the molar value. Counter-ions that a name gives are not always drawn.

What all share (assay type): cell-based
For assay [1], the system named is NIH3T3/EGFR_E746-A750_deletion+T790M. Put plainly: Cell proliferation assay (CellTiter-Glo), NIH3T3/EGFR_E746-A750_deletion+T790M. Conditions: Mus musculus, NIH3T3, 120 h, 3T3 cell line, three to five days of compound treatment, read-out: 3T3 del_T790M IC50. As to the method: (§1) Cell proliferation was measured using the CellTiter-Glo® Luminescent Cell Viability Assay. The assay involves the addition of a single reagent (CellTiter-Glo® Reagent) directly to cells cultured in serum-supplemented medium. The assay uses this one-step addition to induce cell lysis and generate a luminescent signal proportional to the amount of ATP present which is directly proportional to the number of metabolically active cells present in culture. The following cell lines were evaluated in this assay: NIH3T3/EGFR_L858R, NIH3T3/EGFR_E746-A750_deletion, NIH3T3/EGFR L858R+T790M, NIH3T3/EGFR_E746-A750_deletion+T790M, PC-9, PC9-DRH, NCI-H1975, and NCI-H3255. NIH/3T3 parental cells, NCI-H1975, and NCI-H3255 were purchased from the American Type Culture Collection (Manassas, Va.), and PC-9 cells were obtained from Japan. All cells were cultured according to recommendations. NIH/3T3 cells were grown in DMEM (Invitrogen, Carlsbad, Calif.) supplemented with 10% newborn calf serum (Invitrogen), and NIH3T3/EGFR mutant cells were grown in complete media with 5 μg/mL puromycin (Invitrogen). PC-9, NCI-H1975, and NCI-H3255 were grown in RPMI (Invitrogen, Carlsbad, Calif.) supplemented with 10% FBS (Sigma, St Louis, Mo.), and PC9-DRH cells were grown in complete media with 2 uM PF-00299804. Plasmids (pLPCX) with various EGFR constructs were made by GenScript (Piscataway, N.J.), and stable pools of NIH/3T3 cells expressing these constructs were made at Pfizer La Jolla. PC9-DRH cells were generated at Pfizer La Jolla by exposing cells to increasing concentrations of PF-00299804. Cells were plated in complete culture media (3000-5000 cells/well, 50 μl/well) on the bottom of white clear-bottom tissue culture treated microtiter plates (#3610, Corning Inc, Corning, N.Y.) and allowed to adhere overnight at 37° C., 5% CO2. The following day, compound dilution plates were prepared in 96 well clear V-bottom 0.5 mL polypropylene block plates (#3956, Corning, Inc). All cell lines were not evaluated for each compound. Each compound evaluated was prepared as a DMSO stock solution (10 mM). Compounds were tested in duplicate on each plate, with an 11-point serial dilution curve (1:3 dilution). Compound treatment (50 μl) was added from the compound dilution plate to the cell plate. The highest compound concentration was 1 or 10 μM (final), with a 0.3% final DMSO (#D-5879, Sigma, St Louis, Mo.) concentration. Plates were then incubated at 37° C., 5% CO2. After three to five days of compound treatment, CellTiter-Glo® Reagent (#G7573, Promega, Madison, Wis.) was prepared in one of two ways. If thawing a frozen aliquot of CellTiter-Glo® Reagent, the aliquot was thawed and equilibrated to room temperature prior to use while keeping it protected from light. Alternatively, new bottles of CellTiter-Glo® Buffer and CellTiter-Glo® Substrate were thawed and equilibrated to room temperature prior to use. CellTiter-Glo® Buffer (100 mL) was transferred into the amber bottle containing CellTiter-Glo® Substrate to reconstitute the lyophilized enzyme/substrate mixture, forming the CellTiter-Glo® Reagent. The reconstituted reagent was mixed by gently inverting the contents to obtain a homogeneous solution, and went into solution easily in less than one minute. Any unused reconstituted CellTiter-Glo® Reagent was immediately aliquoted and frozen at −20° C., protected from light. Cell plates were equilibrated at room temperature for approximately 30 minutes. An equivolume amount of CellTiter-Glo® Reagent (100 μL) was added to each well. Plates were mixed for two minutes on an orbital shaker to induce cell lysis, and then allowed to incubate at room temperature for 10 minutes to stabilize the luminescent signal. Luminescence was recorded using the PerkinElmer EnVision Excite Multilabel Reader used for endpoint reading for Luminescence detection (Waltham, Mass.). Data were analyzed using a four-parameter fit in Microsoft Excel. […]

Assay [2] concerns NIH3T3/EGFR_E746-A750_deletion. Kind of assay: Cell proliferation assay (CellTiter-Glo), NIH3T3/EGFR_E746-A750_deletion. Particulars: Mus musculus, NIH3T3, 120 h, 3T3 cell line, three to five days of compound treatment, read-out: 3T3 del IC50. The method, then:
as §1

Assay [3] deals with EGFR L858R+T790M (Homo sapiens, UniProt P00533, L858R/T790M). Put plainly: pEGFR Y1068 ELISA assay, NIH3T3/EGFR_L858R+T790M cells.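 Also: sandwich ELISA of EGFR phosphorylated at Tyr1068 in lysates of stably transfected NIH/3T3 cells, 11-point threefold dilution series run in duplicate.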 Conditions: 3T3 cell line, 2 hrs compound treatment; read-out: pEGFRY1068 ELISA3T3T790M—L858R IC50.
Sequence of EGFR L858R+T790M (P00533 25-1210 T790M/L858R): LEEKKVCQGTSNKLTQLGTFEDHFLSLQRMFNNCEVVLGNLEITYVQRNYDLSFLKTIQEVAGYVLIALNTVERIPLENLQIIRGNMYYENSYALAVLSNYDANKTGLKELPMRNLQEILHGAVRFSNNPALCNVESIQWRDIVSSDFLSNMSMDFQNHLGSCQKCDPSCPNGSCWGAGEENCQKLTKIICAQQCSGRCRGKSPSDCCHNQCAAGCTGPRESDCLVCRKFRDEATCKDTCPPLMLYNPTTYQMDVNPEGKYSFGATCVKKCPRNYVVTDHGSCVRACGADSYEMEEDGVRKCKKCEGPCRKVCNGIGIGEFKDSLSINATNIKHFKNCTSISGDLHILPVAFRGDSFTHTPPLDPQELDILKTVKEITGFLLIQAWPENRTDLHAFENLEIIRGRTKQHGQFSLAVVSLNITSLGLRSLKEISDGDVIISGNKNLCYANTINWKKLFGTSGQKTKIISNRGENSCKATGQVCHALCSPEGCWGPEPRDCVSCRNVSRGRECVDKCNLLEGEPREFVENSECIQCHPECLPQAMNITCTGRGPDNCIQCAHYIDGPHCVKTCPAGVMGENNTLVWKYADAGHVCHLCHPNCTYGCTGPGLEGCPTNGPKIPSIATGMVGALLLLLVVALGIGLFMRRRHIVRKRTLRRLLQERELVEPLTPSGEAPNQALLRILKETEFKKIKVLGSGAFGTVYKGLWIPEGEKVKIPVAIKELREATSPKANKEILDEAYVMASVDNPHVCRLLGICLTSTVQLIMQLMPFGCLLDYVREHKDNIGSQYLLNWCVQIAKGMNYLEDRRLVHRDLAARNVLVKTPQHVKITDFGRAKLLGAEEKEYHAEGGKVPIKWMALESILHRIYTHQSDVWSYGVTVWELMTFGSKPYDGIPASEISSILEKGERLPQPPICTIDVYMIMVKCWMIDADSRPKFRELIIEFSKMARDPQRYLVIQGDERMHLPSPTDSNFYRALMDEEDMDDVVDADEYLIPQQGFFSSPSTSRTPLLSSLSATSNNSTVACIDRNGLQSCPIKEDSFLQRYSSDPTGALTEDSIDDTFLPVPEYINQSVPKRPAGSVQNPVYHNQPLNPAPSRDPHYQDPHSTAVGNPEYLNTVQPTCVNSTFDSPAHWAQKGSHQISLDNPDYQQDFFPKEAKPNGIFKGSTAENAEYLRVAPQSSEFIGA
In assay [4] the target is EGFR L858R (Homo sapiens, UniProt P00533, L858R). Kind of assay: pEGFR Y1068 ELISA assay, NIH3T3/EGFR_L858R cells.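 Also: sandwich ELISA of phospho-EGFR Tyr1068 in lysates of stably transfected NIH/3T3 pools after 2 h compound exposure at 37 °C, 11-point threefold dilution series run in duplicate.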 Particulars: 3T3 cell line, 2 hrs compound treatment; read-out: pEGFRY1068 ELISA3T3 L858R IC50.
Assay [5] deals with NIH3T3/EGFR L858R+T790M. Put plainly: Cell proliferation assay (CellTiter-Glo), NIH3T3/EGFR L858R+T790M. Conditions: Mus musculus, NIH3T3, 120 h, 3T3 cell line, three to five days of compound treatment, read-out: 3T3 L858R_T790M IC50.
For assay [6], the target named is T1, EGFR wildtype, endogenous (Homo sapiens, UniProt P00533).
T1 construct: A549 (EGFR wildtype, endogenous); host or cells: A549
T1 sequence (P00533 25-1210): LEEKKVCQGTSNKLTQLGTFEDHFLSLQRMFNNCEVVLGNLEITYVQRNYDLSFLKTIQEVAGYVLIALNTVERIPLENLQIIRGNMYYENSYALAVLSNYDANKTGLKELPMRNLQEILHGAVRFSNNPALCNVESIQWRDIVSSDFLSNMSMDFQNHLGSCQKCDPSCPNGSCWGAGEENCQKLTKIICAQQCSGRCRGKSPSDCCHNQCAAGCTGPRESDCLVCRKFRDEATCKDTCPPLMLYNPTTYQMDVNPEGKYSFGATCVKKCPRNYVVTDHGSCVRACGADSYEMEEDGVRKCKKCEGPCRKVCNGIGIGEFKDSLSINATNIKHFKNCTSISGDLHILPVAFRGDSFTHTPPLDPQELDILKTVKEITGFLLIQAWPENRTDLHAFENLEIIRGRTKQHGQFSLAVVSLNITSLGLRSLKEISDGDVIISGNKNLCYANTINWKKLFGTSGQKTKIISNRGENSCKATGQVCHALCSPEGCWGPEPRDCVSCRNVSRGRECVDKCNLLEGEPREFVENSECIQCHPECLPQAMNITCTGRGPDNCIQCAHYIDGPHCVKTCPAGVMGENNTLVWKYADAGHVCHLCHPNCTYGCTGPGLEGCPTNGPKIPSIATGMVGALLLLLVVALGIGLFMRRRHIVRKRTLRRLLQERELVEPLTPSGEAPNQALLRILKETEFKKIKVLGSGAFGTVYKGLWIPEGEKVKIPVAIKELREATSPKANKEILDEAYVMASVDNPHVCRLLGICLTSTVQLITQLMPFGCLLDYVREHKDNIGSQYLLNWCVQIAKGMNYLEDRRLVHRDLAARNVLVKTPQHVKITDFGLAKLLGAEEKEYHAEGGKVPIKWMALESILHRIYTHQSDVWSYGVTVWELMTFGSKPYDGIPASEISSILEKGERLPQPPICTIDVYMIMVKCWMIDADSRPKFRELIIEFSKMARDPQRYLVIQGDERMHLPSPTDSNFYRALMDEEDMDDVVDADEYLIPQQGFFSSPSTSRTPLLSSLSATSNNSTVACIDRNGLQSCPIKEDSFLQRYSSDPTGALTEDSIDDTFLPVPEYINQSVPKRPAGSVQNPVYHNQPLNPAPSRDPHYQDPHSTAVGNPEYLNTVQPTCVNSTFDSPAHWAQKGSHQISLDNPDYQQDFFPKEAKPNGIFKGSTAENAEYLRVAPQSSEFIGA
Kind of assay: pEGFR Y1068 ELISA assay, A549 cells.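 Also: sandwich ELISA of phospho-EGFR Tyr1068 in cell lysates, cells exposed to compound for 2 h before EGF stimulation, 11-point threefold dilution series run in duplicate.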 Conditions: full serum media, stimulated 10 min with EGF (40 ng/mL), read-out: pEGFRY1068 ELISAA549 IC50.

For assay [7], the system named is NIH3T3/EGFR_L858R. Put plainly: Cell proliferation assay (CellTiter-Glo), NIH3T3/EGFR_L858R. Particulars: Mus musculus, NIH3T3, 120 h, 3T3 cell line, three to five days of compound treatment, read-out: 3T3 L858R IC50. As to the method:
as §1

Assay [8] deals with T2, EGFR Del (PC9) (Homo sapiens, UniProt P00533, DEL746-750).
T2 construct: endogenous in cells; host or cells: PC-9
T2 sequence (P00533 with tags, fused parts or gaps DEL746-750): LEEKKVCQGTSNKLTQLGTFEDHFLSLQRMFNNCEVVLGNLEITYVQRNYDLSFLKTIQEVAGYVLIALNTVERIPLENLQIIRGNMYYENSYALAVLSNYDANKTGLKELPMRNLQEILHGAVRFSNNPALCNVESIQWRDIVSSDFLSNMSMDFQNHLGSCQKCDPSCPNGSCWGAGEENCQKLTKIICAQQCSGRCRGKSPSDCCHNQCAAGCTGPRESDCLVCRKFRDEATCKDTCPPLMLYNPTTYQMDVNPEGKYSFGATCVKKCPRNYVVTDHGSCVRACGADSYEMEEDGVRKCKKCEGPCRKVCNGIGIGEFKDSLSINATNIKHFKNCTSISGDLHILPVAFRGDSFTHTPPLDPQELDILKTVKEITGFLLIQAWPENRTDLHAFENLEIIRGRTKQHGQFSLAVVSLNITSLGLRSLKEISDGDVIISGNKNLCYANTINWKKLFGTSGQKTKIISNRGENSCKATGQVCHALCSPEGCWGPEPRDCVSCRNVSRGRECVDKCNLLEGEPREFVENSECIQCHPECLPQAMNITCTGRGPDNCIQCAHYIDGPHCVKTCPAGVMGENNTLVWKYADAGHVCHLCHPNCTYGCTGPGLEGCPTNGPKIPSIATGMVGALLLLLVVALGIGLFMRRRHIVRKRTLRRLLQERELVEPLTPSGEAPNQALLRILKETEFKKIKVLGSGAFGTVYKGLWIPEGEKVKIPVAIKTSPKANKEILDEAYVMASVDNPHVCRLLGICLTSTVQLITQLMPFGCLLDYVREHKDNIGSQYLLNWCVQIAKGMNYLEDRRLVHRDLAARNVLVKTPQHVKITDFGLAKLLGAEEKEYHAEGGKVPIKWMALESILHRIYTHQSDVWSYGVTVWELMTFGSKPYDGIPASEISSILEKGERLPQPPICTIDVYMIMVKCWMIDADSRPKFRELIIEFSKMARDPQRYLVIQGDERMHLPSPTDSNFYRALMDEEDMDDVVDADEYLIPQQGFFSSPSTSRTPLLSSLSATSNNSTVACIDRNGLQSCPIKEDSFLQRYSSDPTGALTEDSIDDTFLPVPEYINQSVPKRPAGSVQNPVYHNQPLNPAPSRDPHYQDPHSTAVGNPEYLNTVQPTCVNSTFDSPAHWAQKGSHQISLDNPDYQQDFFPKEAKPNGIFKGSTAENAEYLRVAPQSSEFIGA
Kind of assay: EGFR ELISA, PC9 Del cells.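 Also: cellular EGFR autophosphorylation at Tyr1068 quantified by sandwich ELISA of cell lysates after 2 h compound exposure at 37 °C, 11-point threefold dilution series.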 Conditions: read-out: EGFR_ELISA9E PC9 Del IC50.

In assay [9] the target is EGFR E746-A750 deletion (Homo sapiens, UniProt P00533, DEL746-750). Put plainly: pEGFR Y1068 ELISA assay, NIH3T3/EGFR_E746-A750 deletion cells.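 Also: sandwich ELISA on cell lysates detecting phospho-EGFR at Tyr1068, compounds run as 11-point threefold dilution series in duplicate, IC50 from inhibition of this phosphorylation signal.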 Particulars: 3T3 Del cells, 2 hrs compound treatment; read-out: ELISA7E 3T3 Del IC50.
Sequence of EGFR E746-A750 deletion (P00533 with tags, fused parts or gaps DEL746-750): as above

In the case of `C=CC(=O)N(C)[C@H]1C[C@H](Oc2nc(Nc3cnn(CC(O)CN(C)C)c3)nc3[nH]cc(Cl)c23)C1` (stereo partly shown) [Example 75], the pIC50 in assay [1] is 7.00 to 8.00; in [2], 6.00 to 7.00; in assay [3] it was 7.16; in assay [4] it was 5.45; in [5], 6.00 to 7.00; in assay [6], below 5.00. Besides, the pIC50 in assay [7] is below 6.00.
For `C=CC(=O)Nc1cccc(Oc2nc(Nc3cnn(C)c3)nc3[nH]ccc23)c1` [Example 35], the pIC50 in [1] was above 8.00; in assay [2], above 8.00; in assay [5] it was above 8.00; in assay [7], 6.00 to 7.00.
For the compound `C=CC(=O)N1CC(Oc2nc(Nc3cnn(C)c3)nc3[nH]cc(Cl)c23)C1` [Example 105], the negative-log IC50 (pIC50) in [1] was 6.00 to 7.00; in assay [2], 6.00 to 7.00; in assay [3] it was 7.43; in assay [4] it was 6.31; in assay [5], 6.00 to 7.00; in assay [6] it was below 5.00. In addition, in assay [7], the pIC50 is 6.00 to 7.00.
Take `C=CC(=O)N1C[C@H](COC)[C@@H](COc2nc(Nc3cnn(C)c3)nc3[nH]cc(Cl)c23)C1` [Example 74]: the pIC50 in assay [1] is 7.00 to 8.00; in assay [2], 7.00 to 8.00; in assay [5], 6.00 to 7.00; in [7], 6.00 to 7.00.
For the compound `C=CC(=O)Nc1cccc(Oc2nc(Nc3cnn(C4CCN(C)C4)c3)nc3[nH]ccc23)c1` (stereo not shown) [Example 34], the negative-log IC50 (pIC50) in assay [1] is above 8.00; in [2], above 8.00; in assay [3], 7.85; in assay [4], 6.77; in [5], 7.00 to 8.00; in [6] it was 5.39. Moreover, the pIC50 in assay [7] is 6.00 to 7.00.
Turning to `C=CC(=O)N1C[C@H](COc2nc(Nc3cnn(C)c3)nc3[nH]cc(-c4ccccn4)c23)[C@@H](OC)C1` [Example 117], the pIC50 in assay [8] was 6.08; in assay [6] it was below 5.00.
As to `C=CC(=O)Nc1cccc(Oc2nc(Nc3cn(C)nc3C(F)(F)F)nc3[nH]ccc23)c1` [Example 32], the negative-log IC50 (pIC50) was above 8.00 in assay [1]; 7.00 to 8.00 in assay [2]; 8.05 in assay [3]; 7.33 in [4]; 7.00 to 8.00 in [5]; 5.87 in [6]. The pIC50 in assay [7] was below 6.00; in assay [9] it was 7.01.
Consider `C=CC(=O)Nc1cccc(Oc2nc(Nc3ccn(C)n3)nc3[nH]cc(Cl)c23)c1` [Example 21], for which the pIC50 in [1] was above 8.00; in assay [2], 7.00 to 8.00; in assay [3] it was 7.89; in [4], 6.69; in assay [5], 7.00 to 8.00; in assay [6] it was 5.11. The figures for the pIC50 in assay [7] and in assay [9] were below 6.00 and 7.48, respectively.
As for `C=CC(=O)Nc1cccc(Oc2nc(Nc3cnn(C(C)C)c3)nc3[nH]ccc23)c1` [Example 31], the pIC50 in [1] is 7.00 to 8.00; in assay [2], 7.00 to 8.00; in assay [3], 7.96; in assay [4], 6.98; in assay [5] it was 7.00 to 8.00; in [6] it was 6.02. Moreover, the negative-log IC50 (pIC50) in [7] is below 6.00.
`C=CC(=O)N1C[C@H](COc2nc(Nc3cnn(C)c3)nc3[nH]cc(Cl)c23)[C@@H](OC)C1` [Example 9, 1-{(3R,4R)-3-[5-chloro-2-(1-methyl-1H-pyrazol-4-ylamino)-7H-pyrrolo[2,3-d]pyrimidin-4-yloxymethyl]-4-methoxy-pyrrolidin-1-yl}propenone trifluoroacetate]: the pIC50 is above 8.00 in assay [1], 7.00 to 8.00 in assay [2], 6.00 to 7.00 in assay [5] and 6.00 to 7.00 in assay [7].
Consider `C=CC(=O)N1C[C@H](COc2nc(Nc3cnn(CC)n3)nc3[nH]cc(Cl)c23)[C@@H](OC)C1` [Example 67], for which the negative logarithm of the IC50 (pIC50) was 8.10 in [3]; 7.31 in [4]; 6.85 in assay [8]; below 5.00 in assay [6]; 6.76 in assay [9].
Regarding `C=CC(=O)N1CC[C@@H](COc2nc(Nc3cnn(C)c3)nc3[nH]cc(Cl)c23)C1` [Example 64], the pIC50 in assay [1] was above 8.00; in assay [2] it was above 8.00; in [5], 7.00 to 8.00; in [7] it was 7.00 to 8.00.
As to `C=CC(=O)N1CCOC2(CCN(c3nc(Nc4cnn(C)c4)nc4[nH]cc(Cl)c34)C2)C1` (stereo not shown) [Example 76], the pIC50 in [1] is 6.00 to 7.00; in [2], 6.00 to 7.00; in assay [3] it was 7.59; in assay [4], 6.07; in [5], 6.00 to 7.00; in [6] it was below 5.00. The pIC50 in [7] was below 6.00.
In the case of `C=CC(=O)N1C[C@H](COc2nc(Nc3cnn([C@@H]4CCOC4)c3)nc3[nH]cc(Cl)c23)[C@@H](OC)C1` [Example 72], the pIC50 in assay [1] is 7.00 to 8.00; in assay [2] it was 6.00 to 7.00; in [5] it was 6.00 to 7.00; in assay [7], 6.00 to 7.00.
Turning to `C=CC(=O)N1CC[C@@H](Nc2nc(Nc3cnn(C)c3)nc3[nH]cc(C#N)c23)C1` [Example 78], the pIC50 in assay [8] was 5.49; in assay [6] it was below 5.00.
For the compound `C=CC(=O)N[C@H]1C[C@@](C)(Oc2nc(Nc3cnn(C)c3)nc3[nH]cc(Cl)c23)C1` [Example 69], the negative-log IC50 (pIC50) in assay [3] was 7.72; in [4], 6.54; in assay [8], 6.33; in assay [6], below 5.03; in assay [9] it was 6.93.
The corresponding values for `C=CC(=O)Nc1cccc(Oc2nc(Nc3cnn(C)c3)nc3[nH]cc(-c4cccnc4)c23)c1` [Example 8, N-[3-({2-[(1-methyl-1H-pyrazol-4-yl)amino]-5-(pyridin-3-yl)-7H-pyrrolo[2,3-d]pyrimidin-4-yl}oxy)phenyl]prop-2-enamide] are 7.77, 7.60, 8.52, 5.86 and 8.10.
`C=CC(=O)Nc1cccc(Oc2nc(Nc3cnn(C)c3)nc3[nH]cc(-c4cnn(C)c4)c23)c1` [Example 60]: the pIC50 in assay [3] is 7.80; in assay [4], 7.64; in assay [6], 5.73; in [9], 7.92.

The record behind these values is patent US9040547B2, “Pyrrolopyrimidine and purine derivatives” (PFIZER INC., priority 2011, dated 2015).
